Where “and” joins values, the source holds several entries; their conditions need not be identical. Equal values may be shown once. Read-outs that look alike come from different tables or passages of the source.
Experiment: Pharmacokinetics after intravenous administration of CK in rats (10 mg/kg)
Format: in vivo, Sprague-Dawley rats
Conditions: i.v. 10 mg/kg; for half-life: read-out: t1/2z (converted)
Description: All samples were analyzed with a triple quadrupole LC-MS/MS (API 4000 LC-MS/MS, AB Sciex, Framingham, MA, USA) coupled with an Agilent 1200 HPLC system (Agilent Technologies, Palo Alto, CA, USA). The MS was equipped with an electrospray system (ESI). The N2 gas temperature and ion-spray voltage were set to 550 °C and 4.5 kV, respectively. CK was measured in multiple reaction monitoring (MRM) mode using a negative electrospray ionization source at m/z 667.4 → 621.2 for CK (CID 25.6 v) and m/z 271.2 → 228.8 for internal standard (IS, (E)-5-(4-fluorostyryl)-2-isopropylbenzene-1,3-diol, Welichem Biotech Inc., Wayburne Drive Burnaby, BC, Canada) (CID 28.3 v) with a dwell time of 0.1 s.
Rats were divided randomly into 5 groups of six animals each (sex in half) and given 7 days to acclimatize to the facility before the experiments began. The four forms of CK were suspended in 0.5% sodium carboxymethyl cellulose (CMC-Na) solution and orally administered to rats at a dose of 20 mg/kg. A CK solution in a mixed solvent of dimethyl sulfoxide (DMSO)/castor oil/physiologic saline (3:5:92, v/v) was intravenously administered to the remaining group via the tail vein at a dose of 10 mg/kg. Blood samples were collected by retro-orbital puncture at the following times: 0.167, 0.333, 0.667, 1, 2, 3, 4, 6, 9, 12, and 24 h for the oral administration, and at 0.0083, 0.05, 0.133, 0.25, 0.5, 1, 2, 4, 6, and 9 h for the intravenous administration. Plasma samples were obtained by centrifuging a heparinized blood tube at 4000 rpm for 5 min and then stored at −70 °C until analysis.
The procedure for drug extraction from plasma samples was as follows: 0.2 mL acetonitrile, 0.2 mL plasma sample, and 10 μL IS (1 µg/mL) were added into a 1.5 mL Eppendorf-type tube. This mixture was vortexed for 1 min and then treated with 0.8 mL of methyl tert-butyl ether (MTBE) to precipitate the plasma proteins. After a mechanical vortex for 1 min and subsequent centrifugation (4000 rpm, 5 min), 0.8 mL of the supernatant was transferred and blow-dried with N2 at 40 °C in a water bath. Finally, the residue was dissolved in 120 μL of mobile phase, and then 10 μL was subjected to HPLC for analysis. […] Intra- and inter-day precision and accuracy never exceeded 15% by analyzing six replicate samples.
The CK pharmacokinetic parameters in rats, including the area under the curve (AUC(0–t) and AUC(0–∞)), mean residence time (MRT(0–t) and MRT(0–∞)), maximum concentration (Cmax), time to maximum concentration (Tmax), half-life (t1/2), apparent distribution volume (V), and total plasma clearance (CL), were derived from plasma concentration-time curves by using non-compartmental analysis (NCA) with DAS 2.0 software (Drug And Statistics, Mathematical Pharmacology Professional Committee of China, Shanghai, China). The absolute bioavailability (Fabs) was calculated from the dose-adjusted ratio of AUCp.o. to AUCi.v.. One-way analysis of variance (ANOVA) by SPSS 11.5 (SPSS Inc., Chicago, IL, USA) was conducted to compare the primary PK parameters.

[1] = female rats, individual rats 1-3, 10 mg/kg
[2] = female, Sprague-Dawley, rat, plasma, iv, 10 mg/kg, female rats, Mean±SD

## CC(C)=CCCC(C)(OC1OC(CO)C(O)C(O)C1O)C1CCC2(C)C1C(O)CC1C3(C)CCC(O)C(C)(C)C3CCC12C [CK, 20-O-β-D-glucopyranosyl-20(S)-protopanaxadiol]
Female rats, 0.5 min, individual rats 1-3, 10 mg/kg
  Plasma concentrations of CK: 54838.90 ng/mL and 127905.96 ng/mL and 48362.17 ng/mL
Female rats, 0.05 h, individual rats 1-3, 10 mg/kg
  Plasma concentrations of CK: 15185.26 ng/mL and 25786.82 ng/mL and 6748.70 ng/mL
Female rats, 8 min, individual rats 1-3, 10 mg/kg
  Plasma concentrations of CK: 1631.02 ng/mL and 4937.02 ng/mL and 980.77 ng/mL
Female rats, 0.25 h, individual rats 1-3, 10 mg/kg
  Plasma concentrations of CK: 672.83 ng/mL and 1554.81 ng/mL and 553.32 ng/mL
Female rats, 0.5 h, individual rats 1-3, 10 mg/kg
  Plasma concentrations of CK: 411.75 ng/mL and 359.74 ng/mL
Female rats, 1 h, individual rats 1-3, 10 mg/kg
  Plasma concentrations of CK: 117.01 ng/mL and 136.73 ng/mL and 243.80 ng/mL
Female rats, 2 h, individual rats 1-3, 10 mg/kg
  Plasma concentrations of CK: 136.06 ng/mL and 82.52 ng/mL
Female rats, 4 h, individual rats 1-3, 10 mg/kg
  Plasma concentrations of CK: 63.54 ng/mL and 48.16 ng/mL and 99.22 ng/mL
Female rats, 6 h, individual rats 1-3, 10 mg/kg
  Plasma concentrations of CK: 27.72 ng/mL and 22.95 ng/mL and 47.61 ng/mL
Female rats, 9 h, individual rats 1-3, 10 mg/kg
  Plasma concentrations of CK: 27.31 ng/mL and 14.83 ng/mL and 34.93 ng/mL
Female rats, Mean±SD
  CLz/F: 92.7 ± 34.3 mL/min/kg
  Vz/F: 17.75 ± 7.49 L/kg
[1]
  AUC(0-t): 3164.67 ng·h/mL and 6150.84 ng·h/mL and 2722.08 ng·h/mL
  AUC(0-∞): 3206.10 ng·h/mL and 6173.20 ng·h/mL and 2779.29 ng·h/mL
  CLz/F: 104 mL/min/kg and 54 mL/min/kg and 120 mL/min/kg
  MRT(0-t): 34.2 min and 15.6 min and 60 min
  MRT(0-∞): 56.4 min and 20.4 min and 86.4 min
  Vz/F: 21.99 L/kg and 9.10 L/kg and 22.17 L/kg
  t1/2z: 117 min and 128 min
female, Sprague-Dawley, rat, plasma, iv, 10 mg/kg, female rats, 0.5 min, Mean±SD, read-out: Plasma concentrations of CK
  concentration at 0.5 min: 77000 ± 44200 ng/mL
female, Sprague-Dawley, rat, plasma, iv, 10 mg/kg, female rats, 0.05 h, Mean±SD, read-out: Plasma concentrations of CK
  concentration at 0.05 h: 15900 ± 9540 ng/mL
female, Sprague-Dawley, rat, plasma, iv, 10 mg/kg, female rats, 8 min, Mean±SD, read-out: Plasma concentrations of CK
  concentration at 8 min: 2520 ± 2120 ng/mL
female, Sprague-Dawley, rat, plasma, iv, 10 mg/kg, female rats, 0.25 h, Mean±SD, read-out: Plasma concentrations of CK
  concentration at 0.25 h: 927 ± 547 ng/mL
female, Sprague-Dawley, rat, plasma, iv, 10 mg/kg, female rats, 0.5 h, Mean±SD, read-out: Plasma concentrations of CK
  concentration at 0.5 h: 354 ± 60.4 ng/mL
female, Sprague-Dawley, rat, plasma, iv, 10 mg/kg, female rats, 0.5 h, individual rats 1-3, read-out: Plasma concentrations of CK
  concentration at 0.5 h: 291 ng/mL
female, Sprague-Dawley, rat, plasma, iv, 10 mg/kg, female rats, 1 h, Mean±SD, read-out: Plasma concentrations of CK
  concentration at 1 h: 166 ± 68.2 ng/mL
female, Sprague-Dawley, rat, plasma, iv, 10 mg/kg, female rats, 2 h, Mean±SD, read-out: Plasma concentrations of CK
  concentration at 2 h: 102 ± 29.8 ng/mL
female, Sprague-Dawley, rat, plasma, iv, 10 mg/kg, female rats, 2 h, individual rats 1-3, read-out: Plasma concentrations of CK
  concentration at 2 h: 86.6 ng/mL
female, Sprague-Dawley, rat, plasma, iv, 10 mg/kg, female rats, 4 h, Mean±SD, read-out: Plasma concentrations of CK
  concentration at 4 h: 70.3 ± 26.2 ng/mL
female, Sprague-Dawley, rat, plasma, iv, 10 mg/kg, female rats, 6 h, Mean±SD, read-out: Plasma concentrations of CK
  concentration at 6 h: 32.8 ± 13.1 ng/mL
female, Sprague-Dawley, rat, plasma, iv, 10 mg/kg, female rats, 9 h, Mean±SD, read-out: Plasma concentrations of CK
  concentration at 9 h: 25.7 ± 10.1 ng/mL
[2]
  AUC(0-inf): 4050 ± 1850 ng·h/mL
  half-life: 131 ± 15 min
female, Sprague-Dawley, rat, plasma, iv, 10 mg/kg, female rats, Mean±SD, read-out: AUC(0-t)
  AUC(0-t): 4010 ± 1870 ng·h/mL
female, Sprague-Dawley, rat, plasma, iv, 10 mg/kg, female rats, Mean±SD, read-out: MRT(0-t)
  MRT last: 36.6 ± 22.2 min
female, Sprague-Dawley, rat, plasma, iv, 10 mg/kg, female rats, Mean±SD, read-out: MRT(0-∞)
  MRT inf: 54.6 ± 33 min
female, Sprague-Dawley, rat, plasma, iv, 10 mg/kg, female rats, individual rats 1-3
  half-life: 146 min
Male rats, 0.5 min, individual rats 1-3, 10 mg/kg
  Plasma concentrations of CK: 67670.83 ng/mL and 69233.93 ng/mL
Male rats, 0.05 h, individual rats 1-3, 10 mg/kg
  Plasma concentrations of CK: 11403.43 ng/mL and 18155.87 ng/mL
Male rats, 8 min, individual rats 1-3, 10 mg/kg
  Plasma concentrations of CK: 1214.82 ng/mL and 3002.82 ng/mL and 2609.85 ng/mL
Male rats, 0.25 h, individual rats 1-3, 10 mg/kg
  Plasma concentrations of CK: 664.52 ng/mL and 1307.24 ng/mL
Male rats, 0.5 h, individual rats 1-3, 10 mg/kg
  Plasma concentrations of CK: 214.44 ng/mL and 391.89 ng/mL
